In patent US9079854B2 (priority 2007, dated 2015):
Like-named read-outs stand apart in the source and are kept apart here.

What was measured:
[1] = target: T1, human CB1 (hCB1) receptor (Homo sapiens, UniProt P21554); assay: CB1 binding assay, competitive binding of [3H]CP 55940; details: for % Inhibition of Control Specific Binding / % of Control Specific Binding 1st / % of Control Specific Binding 2nd / % of Control Specific Binding Mean: CB1, Test Concentration 1.0E−05 (MD); for % of Control Specific Binding 1st: 1st determination; for % of Control Specific Binding 2nd: 2nd determination; for inhibition at 10 µM / inhibition at 1 µM: specific binding of [3H]-CP55940; for inhibition at 1 µM: CHO membranes
T1 construct: expressed in transfected cells; host or cells: CHO (Chinese hamster ovary) cells, membranes
T1 sequence (P21554 whole entry): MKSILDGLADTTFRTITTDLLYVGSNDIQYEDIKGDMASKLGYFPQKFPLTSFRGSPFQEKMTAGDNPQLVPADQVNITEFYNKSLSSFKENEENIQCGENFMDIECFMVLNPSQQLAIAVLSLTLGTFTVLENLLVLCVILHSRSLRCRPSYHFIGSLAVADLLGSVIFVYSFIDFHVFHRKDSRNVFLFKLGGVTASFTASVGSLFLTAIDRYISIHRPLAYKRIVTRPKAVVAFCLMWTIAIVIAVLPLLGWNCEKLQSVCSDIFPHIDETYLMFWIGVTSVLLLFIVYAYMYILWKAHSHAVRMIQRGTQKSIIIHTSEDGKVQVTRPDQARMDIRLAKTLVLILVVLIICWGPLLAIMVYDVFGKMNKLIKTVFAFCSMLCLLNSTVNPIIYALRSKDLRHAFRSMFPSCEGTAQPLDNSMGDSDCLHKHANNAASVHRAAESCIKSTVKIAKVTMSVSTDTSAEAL
Procedure: Cell membrane homogenates (25 μg protein) are incubated for 120 min at 37° C. with 0.5 nM [^3H]CP 55940 (the reference standard [Rinaldi-Carmona, 1996 #1320]) in the absence or presence of the test compound in a buffer containing 50 mM Tris HCl (pH 7.4), 5 mM MgCl2, 2.5 mM EDTA, and 0.3% bovine serum albumin (BSA). […]
(§1) […] [^3H]-CP55940 at a concentration of 0.5 nM and [^3H]-WIN55212 at a concentration of 0.8 nM were used as radioligands for hCB1 and hCB2 assays, respectively. The results are expressed as a percent inhibition of control specific binding. Compounds which displaced the radioligand by more than 50% for either hCB1 or hCB2 receptors were arbitrary chosen for functional activity determination.

[2] = target: T2, human CB2 (hCB2) receptor (Homo sapiens, UniProt P34972); assay: CB2 binding assay, competitive binding of [3H]WIN 55212-2; details: for % Inhibition of Control Specific Binding / % of Control Specific Binding 1st / % of Control Specific Binding 2nd / % of Control Specific Binding Mean: CB2, Test Concentration 1.0E−05 (MD); for % of Control Specific Binding 1st: 1st determination; for % of Control Specific Binding 2nd: 2nd determination; for inhibition at 10 µM / inhibition at 1 µM: specific binding of [3H]-WIN55212-2; for inhibition at 1 µM: CHO membranes
T2 construct: expressed in transfected cells; host or cells: CHO (Chinese hamster ovary) cells, membranes
T2 sequence (P34972 whole entry): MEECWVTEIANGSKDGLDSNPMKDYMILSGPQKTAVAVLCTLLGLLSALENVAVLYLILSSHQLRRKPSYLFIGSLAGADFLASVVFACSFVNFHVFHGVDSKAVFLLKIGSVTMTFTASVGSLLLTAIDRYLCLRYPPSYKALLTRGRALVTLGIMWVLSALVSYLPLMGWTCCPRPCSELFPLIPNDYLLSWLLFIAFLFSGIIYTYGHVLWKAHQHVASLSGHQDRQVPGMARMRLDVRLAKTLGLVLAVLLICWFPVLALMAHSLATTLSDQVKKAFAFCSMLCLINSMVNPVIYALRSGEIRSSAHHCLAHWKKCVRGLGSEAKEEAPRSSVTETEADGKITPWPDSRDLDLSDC
Procedure: Cell membrane homogenates (15 μg protein) are incubated for 120 min at 37° C. with 0.8 nM [^3H]WIN 55212-2 (the reference standard [Munro, 1993 #1321]) in the absence or presence of the test compound in a buffer containing 50 mM HEPES/Tris HCL (pH 7.4), 5 mM MgCl2, 2.5 mM EGTA, and 0.1% BSA. Nonspecific binding is determined in the presence of 10 μM WIN 55212-2. After being incubated, the samples are filtered rapidly under vacuum through glass fiber filters (GF/B; Packard) presoaked with 0.3% PEI and rinsed several times with ice-cold buffer containing 50 mM Tris HCl (pH 7.4) and 0.5% BSA using a 96-sample cell harvester (Unifilter; Packard). The filters are dried then counted for radioactivity in a scintillation counter (Topcount; Packard) using a scintillation cocktail (Microscint 0; Packard). The results are expressed as a percentage of the inhibition of the control radioligand-specific binding. The reference standard compounds are tested in each experiment at several concentrations to obtain a competition curve from which its IC50 is calculated.
as §1

hCB2 receptor = target: T3, hCB2 receptor (Homo sapiens, UniProt P34972); assay: CB2 functional assay, [35S]GTP-γ-S binding; format: biochemical
T3 construct: purchased ES-111-MG; host or cells: CHO membrane extracts
T3 sequence (P34972 whole entry): as above
Procedure: A dose response curve was generated at eight concentrations in duplicate on CB1 and CB2 in light of reference agonists.
Membranes (CB1, ES-110-MG or CB2, ES-111-MG) are mixed with GDP (volume:volume) and incubated for at least […] on ice. In parallel, […] are mixed with the beads (volume:volume) just before starting the reaction. The following reagents are successively added in the wells of an Optiplate: 50 μl of ligand, 20 μl of the membranes:GDP mix, 10 μl of assay buffer for agonist testing and 20 μl of the […]: beads mix. The plates are covered with a topseal, shaken on an orbital shaker for 2 min, and then incubated between 30 to 60 min at room temperature. Then the plates are centrifuged for 10 min at 2000 rpm, incubated at room temperature between 1 to 4 hours and counted for 1 min with a PerkinElmer TopCount reader.
Functional activity for acyl hydrazone was evaluated using [^35S]GTP-γ-S assay in CHO membrane extracts expressing recombinant hCB1 receptor or hCB2 receptor. The assay relies on the binding of [^35S]GTP-γ-S, a radiolabeled nonhydrolyzable GTP analogue, to the G protein upon binding of an agonist of the G-protein-coupled receptor. In this system, agonists stimulate [^35S]GTP-γ-S binding whereas neutral antagonist have no effect and inverse agonists decrease [^35S]GTP-γ-S basal binding.
CB1 and CB2 assay data are presented as the mean of two determinations. […] For replicate determinations, the maximum variability tolerated in the test was of ±20% around the average of the replicates.

[3] = at 10 μM, read-out: % inhibition hCB2 receptor
[4] = read-out: % inhibition hCB2 receptor, at 10 μM
[5] = read-out: % inhibition hCB2 receptor, at 1 μM

SMILES	% of Control Specific Binding 1st [1] [%]	% of Control Specific Binding 2nd [1] [%]	% of Control Specific Binding Mean [1] [%]	inhibition at 10 µM [1] [%]	% Inhibition of Control Specific Binding [2] [%]	% of Control Specific Binding 1st [2] [%]	% of Control Specific Binding 2nd [2] [%]	% of Control Specific Binding Mean [2] [%]	inhibition at 1 µM [1] [%]	inhibition at 1 µM [2, 5] [%]	other results
O=C1/C(=N\NC(=S)Nc2ccccc2)c2ccccc2N1CCC1CCCCC1 [Example 1, Phenyl thiocarbamoyl[1-(2-cyclohexyl-ethyl)-2-oxo-1,2-dihydro-indol-3-ylidene]-hydrazide]	68.6	59.6	64.1	< 40	15	83.3	87.6	85.4	–	–	% Inhibition of Control Specific Binding [1]: 36%; inhibition at 10 µM [2, 3]: < 40%
CCCCCCN1C(=O)/C(=N\NC(=S)Nc2ccccc2)c2ccccc21 [Example 2, Phenyl thiocarbamoyl[1-n-hexyl-2-oxo-1,2-dihydro-indol-3-ylidene]-hydrazide]	45.8	56.1	51	49 ± 5.2	38	59.8	64.7	62.3	–	–	inhibition at 10 µM [2, 3]: 37.7 ± 2.5%
O=C(N/N=C1\C(=O)N(CCC2CCCCC2)c2ccccc21)Nc1ccccc1 [Example 3]	54.1	78.5	66.3	< 40	−3	98.6	107.1	102.8	–	–	% Inhibition of Control Specific Binding [1]: 34%; inhibition at 10 µM [2, 4]: < 40%
CCCCCCN1C(=O)/C(=N\NC(=O)Nc2ccccc2)c2ccccc21 [Example 4, Phenyl carbamoyl[1-n-hexyl-2-oxo-1,2-dihydro-indol-3-ylidene]-hydrazide]	64.3	61.4	62.9	< 40	−8	105.7	109.7	107.7	–	–	% Inhibition of Control Specific Binding [1]: 37%; inhibition at 10 µM [2, 4]: < 40%
O=C1/C(=N\NS(=O)(=O)c2ccccc2)c2ccccc2N1CCC1CCCCC1 [Example 8]	77.2	90	83.6	< 40	9	89.2	93.3	91.2	–	–	% Inhibition of Control Specific Binding [1]: 16%; inhibition at 10 µM [2, 3]: < 40%
CCCCCCN1C(=O)/C(=N\NS(=O)(=O)c2ccccc2)c2ccccc21 [Example 9, Phenyl sulfonyl[1-n-hexyl-2-oxo-1,2-dihydro-indol-3-ylidene]-hydrazide]	87.7	96.1	91.9	< 40	−14	126.5	100.6	113.5	–	–	% Inhibition of Control Specific Binding [1]: 8%; inhibition at 10 µM [2, 3]: < 40%
CCCCCCN1C(=O)/C(=N\NC(=O)CCCCC)c2ccccc21 [Example 12, N′-[(3Z)-1-hexyl-2-oxo-1,2-dihydro-3H-indol-3-ylidene]hexanohydrazide]	–	–	–	–	–	–	–	–	45.2 ± 9.5	36.6 ± 8.8	–
CCCCCCN1C(=O)/C(=N\NC(=O)c2ccc(Cl)cc2)c2ccccc21 [Example 13, 4-chloro-N′-[(3Z)-1-hexyl-2-oxo-1,2-dihydro-3H-indol-3-ylidene]benzohydrazide]	–	–	–	–	–	–	–	–	46.6 ± 4.3	32.7 ± 5.3	–
CCCCCCN1C(=O)/C(=N\NC(=O)c2ccc3ccccc3c2)c2ccccc21 [Example 16, N′-[(3Z)-1-hexyl-2-oxo-1,2-dihydro-3H-indol-3-ylidene]-2-naphthohydrazide]	–	–	–	–	–	–	–	–	< 30	< 30	–
CCCCCCN1C(=O)/C(=N\NC(=O)c2cc3ccccc3s2)c2ccccc21 [Example 18, N′-[(3Z)-1-hexyl-2-oxo-1,2-dihydro-3H-indol-3-ylidene]-1-benzothiophene-2-carbohydrazide]	–	–	–	–	–	–	–	–	< 30	< 30	–
CCCCCCCCCCCCN1C(=O)/C(=N\NC(=O)c2ccccc2)c2ccccc21 [Example 24, N′-[(3Z)-1-(1-dodecyl)-2-oxo-1,2-dihydro-3H-indol-3-ylidene]benzohydrazide]	–	–	–	–	–	–	–	–	23.8 ± 4.5	24.3 ± 4.1	–
O=C(N/N=C1\C(=O)N(CCN2C(=O)c3ccccc3C2=O)c2ccccc21)c1ccccc1 [Example 27, N′-{[3Z]-1-[2-(1,3-dioxo-1,3-dihydro-2H-isoindol-2-yl)ethyl]-2-oxo-1,2-dihydro-3H-indol-3-ylidene}benzohydrazide]	–	–	–	–	–	–	–	–	3 ± 4.1	–	inhibition at 1 µM ([2]; at 1 μM, read-out: % inhibition hCB2 receptor): 3 ± 3.2%
CCCCCCN1C(=O)/C(=N\NC(=O)c2ccccc2)c2cc(C)ccc21 [Example 31, N′-[(3Z)-1-hexyl-5-methyl-2-oxo-1,2-dihydro-3H-indol-3-ylidene]benzohydrazide]	–	–	–	–	–	–	–	–	22 ± 0.9	1 ± 2.7	–
CCCCCCN1C(=O)/C(=N\NC(=O)c2ccccc2)c2cc(OC)ccc21 [Example 32, N′-[(3Z)-1-hexyl-5-methoxy-2-oxo-1,2-dihydro-3H-indol-3-ylidene]benzohydrazide]	–	–	–	–	–	–	–	–	26 ± 3.1	17 ± 1.2	–
CCCCCCN1C(=O)/C(=N\NC(=O)c2ccccc2)c2cc(Cl)ccc21 [Example 34, N′-[(3Z)-5-chloro-1-hexyl-2-oxo-1,2-dihydro-3H-indol-3-ylidene]benzohydrazide]	–	–	–	–	–	–	–	–	9 ± 1.4	6 ± 1.4	–
CCCCCN1C(=O)/C(=N\NC(=O)c2ccccc2)c2cc(I)ccc21 [Example 35, N′-[(3Z)-5-iodo-2-oxo-1-pentyl-1,2-dihydro-3H-indol-3-ylidene]benzohydrazide]	–	–	–	–	–	–	–	–	25 ± 0.2	10 ± 0.2	–
CCCCCCN1C(=O)/C(=N\NC(=O)c2ccccc2)c2ccc(OC)cc21 [Example 36, N′-[(3Z)-1-hexyl-6-methoxy-2-oxo-1,2-dihydro-3H-indol-3-ylidene]benzohydrazide]	–	–	–	–	–	–	–	–	–	–	EC50 (hCB2 receptor): 85 nM; Emax (hCB2 receptor; Table 10, repeated experiment): -95%
COc1ccc2c(c1)N(Cc1ccccc1)C(=O)/C2=N\NC(=O)c1ccccc1 [Example 38, N′-[(3Z)-1-benzyl-6-methoxy-2-oxo-1,2-dihydro-3H-indol-3-ylidene]benzohydrazide]	–	–	–	–	–	–	–	–	–	–	Emax (hCB2 receptor; Table 10, repeated experiment): -96%; EC50 (hCB2 receptor; Table 10, repeated experiment, read-out: [35S]GTP-γ-S hCB2 EC50): 102 nM
